Values of other authors, collected in US20050019366A1, “Drug-coated stents and methods of use therefor” (priority 2002, published 2005).

Tested on: restenosis after angioplasty
Conditions: probucol 500 mg; twice daily for four weeks prior and six months after angioplasty

CC(C)(Sc1cc(C(C)(C)C)c(O)c(C(C)(C)C)c1)Sc1cc(C(C)(C)C)c(O)c(C(C)(C)C)c1 [Probucol, probucol]
reduction of the rate of restenosis after angioplasty: ~50%
